Patent US6566096B2, “Mammalian EDG-7 receptor homologs” (NPS Allelix Corp., priority 1997, dated 2003)
Where “and” joins values, the source holds several entries; their conditions need not be identical. Identical values can stand only once.

Biological target: T1, HEDG-7 receptor (Homo sapiens, UniProt O95977, A140V/I378S)
T1 construct: it was desirable to isolate a full-length cDNA clone from a human source; expressed in transfected cells; host or cells: 293-EBNA cells (Invitrogen, Cat. R620-07), transiently transfected with pc3-hedg7#M10 (pcDNA3.1) and a 2x SRE-luciferase reporter
T1 sequence (O95977 1-384 A140V/I378S): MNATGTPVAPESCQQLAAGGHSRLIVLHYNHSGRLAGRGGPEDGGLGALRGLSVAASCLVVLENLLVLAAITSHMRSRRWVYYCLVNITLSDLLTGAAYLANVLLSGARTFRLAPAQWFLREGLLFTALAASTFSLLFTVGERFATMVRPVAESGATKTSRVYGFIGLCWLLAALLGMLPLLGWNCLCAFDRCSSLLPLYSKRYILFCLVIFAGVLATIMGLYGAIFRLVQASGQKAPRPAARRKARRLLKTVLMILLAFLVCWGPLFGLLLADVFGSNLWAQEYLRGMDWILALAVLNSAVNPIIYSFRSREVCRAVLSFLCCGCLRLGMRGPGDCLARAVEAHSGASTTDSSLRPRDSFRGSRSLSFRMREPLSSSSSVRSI
Assay: SRE-luciferase reporter gene response in 293-EBNA cells transfected with pc3-hedg7#M10
Type: cell-based
Settings: for SRE response (agonist specificity): 5 μM compound, serum-free medium; for SRE response (agonist specificity) / Rank (EMax) / EMax (Percent) / HEDG7 activation (conclusion from dose response): 293-EBNA cells transfected with pc3-hedg7#M10; for Max. Fold: maximal luciferase fold response after subtracting endogenous response in pcDNA3-transfected cells; for Max. Fold / EMax (Percent) / HEDG7 activation (conclusion from dose response): 6 hr treatment; for Rank (EMax): rank of efficacy among sphingolipids tested; for EMax (Percent): relative efficacy; for HEDG-7 agonist activity: summary statement in the description; for HEDG7 activation (conclusion from dose response): various concentrations
Protocol: Miniprep DNA from 4 clones was tested by cotransfection into 293-EBNA cells (Invitrogen, Cat. R620-07) with a 2× SRE-Luciferase reporter gene constructed in-house. We previously determined that these cells are an ideal expression host for edg receptors that respond to sphingolipids, since only a single edg gene is expressed (the LPA receptor subtype […], see U.S. Ser. No. 08/997,803), under normal culture conditions. […] Thus, the low endogenous expression of previously identified S1P receptor subtypes (edg-1, edg-3, edg-4/H218) and hedg7 (determined here) permits overexpression and functional analysis of these receptors in a relatively unresponsive cell background. From this preliminary cotransfection experiment, the expression clone pC3-hEdg7#M10 was chosen for further analysis. The nucleotide sequence and amino acid sequence of the hedg-7 sequence from the pC3-hEdg7#M10 clone are shown in FIG. 1B and FIG. 2B, respectively. Furthermore, an alignment of the hedg-7 amino acid sequence from the pC3-hEdg7#M10 clone and from the genomic DNA sequence is shown in FIG. 3B.
Transient transfection protocol for 293-EBNA:
1) 100 mm plates of 293-EBNA with a confluency of −80% were used for transfection.
2) SRE Reporter Gene Cotransfection: Expression plasmid ([…]) and reporter plasmid (2× SREtk-p4Luc-zeo; 0.5 μg) DNA samples were combined and diluted in 750 μl of DMEM/F12 (serum-free media) and 20 μl Plus Reagent (Lipofectamine Plus Kit, Life Technologies Cat. 10964-013), and incubated at room temperature for 15 min.
3) 30 μl Lipofectamine Reagent (Lipofectamine Plus Kit) was diluted in 750 μl DMEM/F12. The diluted Lipofectamine was then combined with the DNA/Plus mixture and incubated at RT for 15 min.
4) The 293-EBNA plates were washed once with PBS, and 5 ml DMEM/F12 was added to each plate.
5) DNA/Plus/Lipofectamine mixture was added to each plate of 293-EBNA cells. The plates were left for 3 hr at 37° C. in a 5% CO2 incubator.
6) The transfection medium was replaced with DMEM/F12 containing 10% FBS to recover overnight.
2) Transfected cells were harvested by trypsinization and 20,000 cells per well were plated in 96-well Blackview plates coated with poly D-lysine (Becton Dickinson Labware, Cat. 40640). Medium was DMEM/F12 plus 0.15% FBS. No. cells were plated in the outside wells of the 96-well plate. Cells were returned to the incubator for 48 hr.
1) Media was removed and cells treated with compounds diluted in serum-free DMEM/F12 media and the following treatments: a) Untreated: Serum-free DMEM/F12; b) 10 μM S1P in DMEM/F12 medium.
2) The cells were treated 5 hr in the 37° C. incubator.
3) Luclite kit (Packard; Cat. 6016911) was used for luciferase assay. All reagents were brought to room temperature before use.
4) Media was removed from each well. 50 μl 0.5M HEPES pH 7.8, 1 mM MgCl2, 1 mM CaCl2 was added to all wells of 96-well plate.
5) Luclite substrate was made up and 50 μl substrate was added to each well as specified in the kit.
6) Plates were incubated at room temperature for 30 min.
7) After incubation, plates were counted in a 12-detector Packard Top Count on a program without dark delay.
To determine the agonist specificity of HEDG-7, 293-EBNA cells were transfected with pc3-hedg7#M10, serum-deprived as described above, and treated in serum-free medium with 5 μM concentrations of SPC, S1P, LPA, lysophosphatiylcholine (LPC), edelfosine, psychosine, anandamide or 2-arachidonylglycerol. Control cells were treated with serum-free medium alone, and the SRE response was expressed as fold induction relative to this control. After 5 hr of treatment, luciferase activity was measured.
Transfection of a HEDG7 expression vector pc3-hedg7#M10 was carried out using Lipofectamine Plus (Life Technologies, Cat. 10964-013) according to manufacturer's instructions. The next day, transfected cells were harvested by trypsinization and replated at 30,000 cells per well in poly-(D)lysine-coated 96-well plates in medium containing 0.15% FBS. […]

Compound | SRE response (agonist specificity) (5 hr) | Max. Fold [Fold] | Rank (EMax) | EMax (Percent) [%] | HEDG-7 agonist activity | HEDG7 activation (conclusion from dose response) | SRE-Luciferase reporter response (10 μM S1P treatment, 5 hr, EBNA-293 cells transfected with pc3-hedg7#M10 and 2× SRE-Luciferase reporter, 2 independent experiments)
CCCCCCCCCCCCC/C=C/[C@@H](O)[C@@H](N)COP(=O)([O-])OCC[N+](C)(C)C [SPC] | robustly induced expression of the SRE reporter gene | 3.59 | 1 | 100 | agonists for HEDG-7 | full agonists | 
CCCCCCCCCCCCC/C=C/[C@@H](O)[C@@H](N)CO[C@@H]1O[C@H](CO)[C@H](O)[C@H](O)[C@H]1O [Psychosine, psychosine] |  | 1.00 |  | 0 | do not act as HEDG-7 agonists | failed to activate HEDG7 at nontoxic concentrations | 
CCCCCCCCCCCCCCC[C@@H](O)[C@@H](N)COP(=O)(O)O [dihydro-S1P, dihydrosphingosine 1-phosphate] |  |  |  |  | do not act as HEDG-7 agonists |  | 
CCCCC/C=C\C/C=C\C/C=C\C/C=C\CCCC(=O)NCCO [anadamide, anandamide] |  |  |  |  | do not act as HEDG-7 agonists |  | 
CCCCCCCCCCCCC/C=C/[C@@H](O)[C@@H](N)COP(=O)(O)O [S1P] | robustly induced expression of the SRE reporter gene | 3.59 | 1 | 100 | agonists for HEDG-7 | full agonists | 5.3 fold and 6.5 fold
lysophosphatidylcholine [LPC] | failed to activate the SRE response |  |  |  |  |  | 
CCCCCCCCCCCCC/C=C/[C@@H](O)C(N)CO[C@@H]1O[C@H](CO)[C@@H](O)[C@H](O)[C@@H]1O (stereo partly drawn) [Glucospychosine, glucopsychosine] |  | 1.00 |  | 0 | do not act as HEDG-7 agonists | failed to activate HEDG7 at nontoxic concentrations | 
